Data from patent publication US12077797B2, “Oligopeptide with lipid-lowering activity, preparation method and application thereof” (Nanjing University of Finance and Economics, priority 2022, dated 2024).
Where a SMILES comes first, the peptide text is derived from it.

Test system: HepG2 cells
Assay: MTT assay, cell proliferation viability of normal HepG2 cells
Format: cell-based
Details: 256 μM, FIG. 5A
Experimental: i) MTT (also referred to as thiazole blue) assay is used to detect the effects of various components (LPH-I, LPH-II and LPH-III) on the cell proliferation viability of normal HepG2 cells: HepG2 cells in logarithmic growth period are taken and prepared into a cell suspension of 4×10^5 cells/mL with the high glucose DMEM medium containing 10% FBS. Sample wells are set in a 96-well plate, and 100 μL of cell suspension is added to each sample well, and the cells are cultured in a cell incubator for 24 hours to adhere to the wall. After removing the culture medium from the sample wells, the components LPH-I (>10 kDa), LPH-II (3-10 kDa) and LPH-III (<3 kDa) are respectively dissolved in the high glucose DMEM culture medium containing 10% FBS to prepare an oligopeptide culture medium with a concentration of 150 μg/mL, and then added to each sample well, with a volume of 100 μL per well. A blank well is set, no cells are present compared with the sample wells, and 100 μL PBS phosphate buffer (1×, pH 7.2) is used to replace the oligopeptide culture medium. A control well is set with cells compared with the sample wells, and 100 μL PBS phosphate buffer (1×, pH 7.2) is used to replace the oligopeptide culture medium. […] The absorbance is measured at 570 nanometers (nm) wavelength in a microplate reader. […]

C[C@H](N)C(=O)N[C@@H](Cc1ccc(O)cc1)C(=O)N1CCC[C@H]1C(=O)N[C@@H](Cc1ccccc1)C(=O)O [AYPF] (H-AYPF-OH; N-terminus and C-terminus assumed)
effect on the cell viability: a certain effect
